This test deals with α-secretase-mediated APP metabolism (SH-SY5Y neuroblastoma cells). The experiment in a line: α-secretase-induced APPs release in culture medium of neuroblastoma cell line SH-SY5Y. The format is cell-based. The settings on record: APPs secreted in culture medium of SH-SY5Y cells, control = 100. The procedure: The salts according to the present invention are stable crystalline products having strong antidepressive and anti-Alzheimer actions. The effect of the compounds of the invention on α-secretase-induced APPs release was determined in the culture medium of a neuroblastoma cell line (SH-SY5Y) according to what reported by Galbete J. L. et al. in Biochem. 348,307-313, 2000.

`COc1ccc2c3c1O[C@H]1C[C@@H](O)C=C[C@@]31CCN(C)C2` [Galantamine]: where the note is “concentration not given”, the APPs % is reported as 302%.
Same read-out and setting: the value for `CC(C)=CCC[C@]1(C)[C@@H](CC=C(C)C)C[C@@]2(CC=C(C)C)C(=O)[C@]1(C(=O)C(C)C)C(=O)C(CC=C(C)C)=C2O.COc1ccc2c3c1O[C@H]1C[C@@H](O)C=C[C@@]31CCN(C)C2` [Galantamonium hyperforinate] was 773%.
In turn, `CC(C)CCCC1(C)C(CCC(C)C)CC2(CCC(C)C)C(=O)C1(C(=O)C(C)C)C(=O)C(CCC(C)C)=C2O.COc1ccc2c3c1OC1CC(O)C=CC31CCN(C)C2` (stereo not drawn) [Galantamonium octahydrohyperforinate, Galantamine octahydrohyperforinate] had an APPs % (10 μM) of 3652%.
In the case of `CC(C)=CCC[C@]1(C)[C@@H](CC=C(C)C)C[C@@]2(CC=C(C)C)C(=O)[C@]1(C(=O)C(C)C)C(=O)C(CC=C(C)C)=C2O` [Hyperforin], the APPs % (10 μM) was found to be 296%.
Turning to `CC(C)CCC[C@]1(C)[C@@H](CCC(C)C)C[C@@]2(CCC(C)C)C(=O)[C@]1(C(=O)C(C)C)C(=O)C(CCC(C)C)=C2O` [Octahydrohyperforin], the APPs % (10 μM) is 1383%.
The compound “Memantine octahydrohyperforinate [Mentamine octahydrohyperforinate]” registered an APPs % (10 μM) of 3221%.

The values are drawn from US20070010507A1, “Compounds useful in the therapy of alzheimer's disease and formulations containing them” (priority 2003, published 2007).
